US8192962B2, “Processes for detecting toxic substances” (Daikin Industries, Ltd., priority 2001, dated 2012)

System: Mitochondria-located protein genes
Assay: DNA chip mRNA expression in yeast, mitochondria-located protein genes (Table 2)
Assay type: cell-based, Saccharomyces cerevisiae S288C
Conditions: cells incubated two hours with the chemical substance
Procedure, shortened: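 Ratios compare mRNA levels in stressed and control S. cerevisiae. Each toxicant was applied for two hours to log-phase cultures at 25° C. at a sub-lethal, growth-inhibiting level; fluorescent cDNA (Cy3- or Cy5-dUTP) was hybridized to a genome-wide yeast chip for over 12 h at 65° C.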

Measured: The level of expressed mRNA in the presence of chemical substance/The level of expressed mRNA in the absence of chemical substance

O=[N+]([O-])c1cc[n+]([O-])c2ccccc12 [(5), 4-nitroquinolin-N-oxide]
2.0: yeast gene YDL067C
1.3: yeast gene YBR221C | yeast gene YBR251W | yeast gene YDR258C | yeast gene YDR298C | yeast gene YEL024W | yeast gene YFL016C | yeast gene YGL187C | yeast gene YIL155C | yeast gene YJL102W
1.7: yeast gene YDL181W
1.4: yeast gene YBR044C
0.7: yeast gene YBL030C | yeast gene YBR003W | yeast gene YDL198C | yeast gene YER178W | yeast gene YGR062C
0.5: yeast gene YJR045C
1.9: yeast gene YDR377W | yeast gene YJL096W
1.5: yeast gene YBR122C | yeast gene YJL180C
0.9: yeast gene YBL038W | yeast gene YDR178W | yeast gene YEL039C | yeast gene YGL191W | yeast gene YGR008C | yeast gene YGR028W | yeast gene YGR076C | yeast gene YGR082W | yeast gene YJL133W | yeast gene YJR077C
1.6: yeast gene YCR083W | yeast gene YJL166W
0.6: yeast gene YHR008C
1.2: yeast gene YBL022C | yeast gene YDR079W | yeast gene YDR529C
0.8: yeast gene YBR185C | yeast gene YDR347W | yeast gene YGR244C
1.0: yeast gene YBL099W | yeast gene YBR282W | yeast gene YCR046C | yeast gene YGR174C
1.1: yeast gene YAL039C | yeast gene YBR091C | yeast gene YCL057W | yeast gene YDR231C | yeast gene YGL018C
